From paper PMC12703428, “Development of Granzyme A Turn‐ON Fluorescent Activity‐Based Probes” (Chembiochem, 2025)
Values joined by “and” are separate entries in the source; they are usually repeats but may differ in a detail not shown here. Equal values may be shown once. Square brackets hold non-standard residues; d marks the D form. Ends that are not written are not given here. Oic = O=C(O)[C@@H]1C[C@@H]2CCCC[C@@H]2N1; Tic = O=C(O)[C@@H]1Cc2ccccc2CN1

Experiments:
NK‐92 cells = experiment: Flow cytometry analysis of protein labeling in NK-92 and MDA-MB-231 cells; assay type: cell-based, human; settings: 2 h, 37 °C
Method: Figure 4 Characterization of qABPs in native proteomes. A) Labeling of GzmA by 5 and 6 in lysates of various cell lines (1 h, 37 °C). B) Stability of 5 and 6 in buffer and cell media (11 h, 37 °C). The hydrolysis of probes was measured by monitoring the production of Cy5 fluorescence signal over time. […] C) Labeling of GzmA by probes 3 -6 in NK-92 cells (2 h, 37 °C). D) Flow cytometry analysis of protein labeling in NK-92 cells by 3 -5. […] E) Flow cytometry analysis of concentration-dependent GzmA labeling in NK-92 cells and S/N of 5 (5 μM, 2 h, 37 °C). […] F) Flow cytometry analysis of protein labeling by 5 in MDA-MB-231 cells co-cultured with NK-92 cells (see Supporting Information for conditions).

[1] = system: MDA‐MB‐231 cells co‐cultured with NK‐92 cells; experiment: GzmA transfer in NK-92 / MDA-MB-231 coculture; assay type: cell-based, human; settings: 5x10^5 MDA-MB-231 with 2x10^6 NK-92 cells, probe 5 μM, 1-6 h, flow cytometry and gel-based analyses
Method: Figure 4 Characterization of qABPs in native proteomes. A) Labeling of GzmA by 5 and 6 in lysates of various cell lines (1 h, 37 °C). B) Stability of 5 and 6 in buffer and cell media (11 h, 37 °C). The hydrolysis of probes was measured by monitoring the production of Cy5 fluorescence signal over time. […] C) Labeling of GzmA by probes 3 –6 in NK‐92 cells (2 h, 37 °C). D) Flow cytometry analysis of protein labeling in NK‐92 cells by 3 –5. […] E) Flow cytometry analysis of concentration‐dependent GzmA labeling in NK‐92 cells and S/N of 5 (5 μM, 2 h, 37 °C). […]
Supplementary Figure 5. […] Protein samples were analyzed by SDS-PAGE and in-gel fluorescence scanning for Cy5 signal. […]
Conditions for Figure 4C: Various concentrations of probes 3-6 were incubated with 1x10^6 NK-92 cells for 2 h at 37 °C in a humidified incubator. […] Lysates were collected, protein concentration was measured with PIERCE BCA protein assay and samples were analyzed with in-gel fluorescence and GzmA western blotting. […]
All flow cytometry data were collected on BD LSRFortessa and FACSymphony A5 Cell Analyzers and analyzed with FlowJo software. […] Fixed/Permeabilized cells were then resuspended in appropriate amounts of cell staining buffer (BioLegend #420201) and analyzed with flow cytometry and FlowJo software. […]

[2] = Stability of probes in buffer and cell media (hydrolysis by Cy5 signal); assay type: physicochemical; settings: cell culture media, 11 h incubation, 37 °C, read-out production of Cy5 fluorescence signal, mean ± SD n = 3
Method: Figure 4 Characterization of qABPs in native proteomes. A) Labeling of GzmA by 5 and 6 in lysates of various cell lines (1 h, 37 °C). B) Stability of 5 and 6 in buffer and cell media (11 h, 37 °C). The hydrolysis of probes was measured by monitoring the production of Cy5 fluorescence signal over time. […] C) Labeling of GzmA by probes 3 –6 in NK‐92 cells (2 h, 37 °C). D) Flow cytometry analysis of protein labeling in NK‐92 cells by 3 –5. […] E) Flow cytometry analysis of concentration‐dependent GzmA labeling in NK‐92 cells and S/N of 5 (5 μM, 2 h, 37 °C). […] F) Flow cytometry analysis of protein labeling by 5 in MDA‐MB‐231 cells co‐cultured with NK‐92 cells (see Supporting Information for conditions). […] TEXT PRINTED IN THE PICTURE: (E) qABP 5: S/N = 4

Row | Substance | Cell permeability by flow cytometry (Cy5 signal in NK-92 cells) (NK‐92 cells; 1x10^6 NK-92 cells, fixed/permeabilized, mean ± SD n = 3) | Concentration dependence of protein labeling in NK-92 cells (flow cytometry) (NK‐92 cells; NK-92 cells, n = 3) | S/N ratio (mean fluorescence intensity, intact NK-92 versus MDA-MB-231 cells) (NK‐92 cells; probe 5 μM, flow cytometry, n = 3) | Detection of GzmA transfer from NK-92 cells to MDA-MB-231 cells [1] | Hydrolysis of probe [2]
1 | IGNR [compound 5] | clear Cy5 signal | concentration‐dependent protein labeling | ≈ 4 and 4 | able to detect GzmA transfer | –
2 | [Tic]G[Oic]R [compound 6] | – | – | – | – | ≈ 20%
